{
  "source": "a melting point compilation (Tetko et al.; mined from patent text by program, amines drawn as free bases though some values may be those of a salt)",
  "data": [
    {"units": {"melting point": "°C"}, "values": [
      {"smiles": "C=CC(=O)NCNC(=O)CCS(=O)(=O)CCCl", "melting point": "186 to 187"},
      {"smiles": "COc1cc2ncnc(N3CCc4ccc(Cl)cc43)c2cc1SC", "melting point": 210},
      {"smiles": "C=CCc1cc(C(=O)c2ccnn2C)c(Cl)c(Cl)c1O", "melting point": "141 to 143"},
      {"smiles": "CN1C(=O)C2(COc3cc4c(cc32)OCCO4)c2c(-c3cc(O)[nH]n3)cccc21", "note": "(stereo unspecified)", "melting point": "> 250"},
      {"smiles": "CC1(C)Cc2cccc(Oc3c(Cl)cc(NC(=S)NC(=O)c4c(F)cccc4F)cc3Cl)c2O1", "melting point": "153 to 154"},
      {"smiles": "O=C1c2ccccc2C(=O)N1CC1CC1c1cccc2nscc12", "note": "(stereo unspecified)", "melting point": "148 to 151"},
      {"smiles": "COc1ccc(C(F)(F)F)cc1Nc1ccc(C(F)(F)F)cc1[N+](=O)[O-]", "melting point": "86 to 88"},
      {"smiles": "N#Cc1cccnc1N1CCN(CC(=O)Nc2ccc(F)cc2)CC1", "melting point": "98 to 100"},
      {"smiles": "Cc1cc(C)cc(Cc2c(C(C)C)c(=O)[nH]c(=O)n2COCCCN(OC(=O)Oc2ccccc2)C(=O)Oc2ccccc2)c1", "melting point": "59 to 61"},
      {"smiles": "COc1cccc2cc(C(=O)Oc3ccc(Cl)cn3)c(=O)oc12", "melting point": "203 to 204"},
      {"smiles": "CCCOc1ccc(OC)c(-c2csc(NC(=O)c3ccc(OCC(OCC)OCC)cc3)n2)c1", "melting point": 107},
      {"smiles": "O=C(CCOc1cccc(-c2ccccc2)c1)NO", "melting point": "113 to 116"},
      {"smiles": "CN1C(C)(C)CC(OC(=O)N=NC(=O)OC2CC(C)(C)N(C)C(C)(C)C2)CC1(C)C", "melting point": "135 to 137"},
      {"smiles": "COC(=O)c1ccc(NCc2cc(O)ccc2O)cc1", "melting point": 175},
      {"smiles": "c1cn2nc(N3CCOCC3)c3c(c2n1)CCCC3", "melting point": "160 to 161"},
      {"smiles": "O=C(Cn1cnnn1)N(O)CCCP(=O)(O)O", "melting point": "157 to 159"},
      {"smiles": "CC1(C)CC(=O)C(C(=O)Nc2ccc(Cl)c(Cl)c2)C(=O)O1", "note": "(stereo unspecified)", "melting point": "212 to 215"},
      {"smiles": "CC1(C)C(=O)Nc2cc3[nH]c(C4=CCCC4)nc3cc21", "melting point": "233 to 235"},
      {"smiles": "Cc1ncccc1NC(=NC#N)NC(NC(=O)Cc1ccc(F)c(F)c1)C(C)(C)C", "note": "(stereo unspecified)", "melting point": "58 to 60"},
      {"smiles": "O=Cc1ccc(OCc2ccccc2)cc1OCc1ccccc1", "melting point": "80 to 81"},
      {"smiles": "O=c1ccsc2c3ccccc3n(CCN3CCOCC3)c12", "melting point": "136 to 137"},
      {"smiles": "C=CCN(C)C(=O)Cn1c(-c2ccc(Cl)cc2)nc2cccnc21", "melting point": "124 to 127"},
      {"smiles": "CC1(C)C(=O)Nc2cc3[nH]c(NC(=O)c4ccncc4)nc3cc21", "melting point": "> 300"},
      {"smiles": "CN(c1ccc(C(=O)O)cc1)c1cc2c3c(c1)CCCC3CCC2", "melting point": "288 to 289"},
      {"smiles": "Clc1ccc(CN2CCC(c3cc(-c4cccc(Cl)c4)[nH]n3)CC2)cc1", "melting point": "156 to 157"},
      {"smiles": "CC(=O)NCCCNC(=O)c1cc2c(ccc3cnn(C[C@H](C)N)c32)o1", "melting point": 81},
      {"smiles": "CCCCOC(=O)CNC(=O)c1nc2ccc(OC)cc2cc1OCc1ccccc1", "melting point": "90 to 92"},
      {"smiles": "COC(=O)c1ccc(-c2ccc(Cl)cc2)nc1", "melting point": "124 to 126"},
      {"smiles": "Cc1nc2c(NC(=O)OCCc3ccc([N+](=O)[O-])cc3)nc(=O)n(C3CC(O)C(CO)O3)c2nc1C", "note": "(stereo unspecified)", "melting point": "154 to 155"},
      {"smiles": "COc1ccc(CONS(=O)(=O)c2ccc(C)cc2)cc1", "melting point": "109 to 111"},
      {"smiles": "CCOC(=O)C1=C(N)NC(N)=C(C(=O)OCC)C1c1ccc(SC)cc1", "melting point": 127},
      {"smiles": "Cc1nc2c(s1)C(=O)C(C=O)CC2", "note": "(stereo unspecified)", "melting point": "107 to 108"},
      {"smiles": "C=CCc1cc2c(C)cc(=O)oc2c(C)c1O", "melting point": "166 to 167"},
      {"smiles": "CCN(CC)CCNC(=O)c1cc2cc(I)ccc2[nH]1", "melting point": "208 to 210"},
      {"smiles": "CCc1cc(OC)cc2nc(-c3cccnc3N3CC[C@H](N(C)C)C3)oc(=O)c12", "melting point": "148 to 155"},
      {"smiles": "O=C1CN=C(c2ccccc2)O1", "melting point": "83 to 86"},
      {"smiles": "O=C(Nc1cccc(CO)c1)NC1N=C(c2ccccc2F)c2ccccc2N(CC(=O)N2CC3CCC(CC3)C2)C1=O", "note": "(racemic)", "melting point": "143 to 161"},
      {"smiles": "COCCOc1ccc2c(c1)OCC21C(=O)N(Cc2ccccn2)c2ccccc21", "note": "(stereo unspecified)", "melting point": "94 to 95"},
      {"smiles": "COCCOc1c(C(=O)CC(=O)C(=O)O)ccc(Cc2ccccc2)c1OC", "melting point": "83 to 85"},
      {"smiles": "CN(C)CC(C)(C)Oc1ccc(Nc2cc(-c3cccc(-n4ncc5cc(C(C)(C)C)cc(F)c5c4=O)c3CO)nn(C)c2=O)nc1", "melting point": "136 to 144"},
      {"smiles": "Cc1nc(Cn2nc(C(F)(F)F)cc2C(F)(F)F)ccc1NC(=O)c1cccc(Cl)c1C(=O)N[C@@H](C)CS(C)=O", "note": "(stereo partly specified)", "melting point": 183},
      {"smiles": "CN1C(=O)C2C3C=CC(CC3)C2(c2ccc(F)c(F)c2)C1=O", "note": "(stereo unspecified)", "melting point": "125 to 127"},
      {"smiles": "COC(=O)CCCc1ccc(NC(=O)[C@@H](Cc2ccc(OCc3ccccc3)cn2)NC(=O)OC(C)(C)C)cc1", "melting point": "166 to 167"},
      {"smiles": "FC(F)(F)Oc1ccc(-n2ccc(CBr)n2)cc1", "melting point": "71 to 73"},
      {"smiles": "N=C(Nc1ccc2[nH]cc(C3CCN(C(=N)c4cccs4)CC3)c2c1)c1cccs1", "melting point": "115 to 117"},
      {"smiles": "CC(C)SC(F)(F)c1nnc(N)s1", "melting point": "119 to 121"},
      {"smiles": "COc1ccc(S(=O)(=O)c2cc3c(cc2OC)OC(C)(C)[C@@H](O)[C@@H]3N2CCCC2=O)cc1", "note": "(relative stereo)", "melting point": "286 to 287"},
      {"smiles": "COc1c(N(C)C)cc(CC(C#N)=CNc2ccccc2)cc1N(C)C", "melting point": "103 to 105"},
      {"smiles": "CC1=CC(c2cccc([N+](=O)[O-])c2)C(C(=O)O)=NN1", "note": "(stereo unspecified)", "melting point": 149},
      {"smiles": "O=S(=O)(NC(CO)CO)c1ccc(Br)s1", "melting point": 80},
      {"smiles": "CC(C)Cc1nc2cc(C(c3cccc(Cl)c3)n3ccnc3)ccc2[nH]c1=O", "note": "(stereo unspecified)", "melting point": 210},
      {"smiles": "CC1CC2=CC(=O)CCC2C2CCC3(C)C(O)CCC3C12", "note": "(stereo unspecified)", "melting point": "144 to 146"},
      {"smiles": "CC(C)(C)C(=O)Oc1nc2c(N)ncnc2n1Cc1ccccc1", "melting point": "202 to 204"},
      {"smiles": "CCCCCC(=O)NCCCSc1ccncc1", "melting point": "48 to 49"},
      {"smiles": "CC1(NC2=NS(=O)(=O)c3sc(Cl)cc3N2)CCCCC1", "melting point": "218 to 219"},
      {"smiles": "N#Cc1cnn2c1N(C(=O)CCl)CC=C2c1cccc(C(F)(F)F)c1", "melting point": "179 to 181"},
      {"smiles": "Cc1ccc2cccc(OCc3c(Cl)ccc(S(=O)(=O)N(C)Cc4cccc(C(=O)O)c4)c3Cl)c2n1", "melting point": 204},
      {"smiles": "COc1nc(OC)c(C=O)c(N(C)C)n1", "melting point": 150},
      {"smiles": "COc1ccc(C2=NN(CCCO)C(=O)[C@H]3CCCC[C@@H]23)cc1OC", "note": "(relative stereo)", "melting point": "94 to 97"},
      {"smiles": "COc1c(N2CC3CCCC3(N)C2)c(F)cc2c(=O)c(C(=O)O)cn(C3CC3F)c12", "note": "(stereo unspecified)", "melting point": "169 to 172"},
      {"smiles": "Cc1cc2ncc(C(=O)O)nc2cc1C", "melting point": "214 to 216"},
      {"smiles": "Cc1ccc(C(O[Si](C)(C)C(C)(C)C)C(=O)NO)cc1", "note": "(stereo unspecified)", "melting point": "109 to 111"},
      {"smiles": "CCN(CC)c1ccc(CN2CCC(NC(=O)Nc3ccccc3CCc3cc(C(C)(C)C)c(O)c(C(C)(C)C)c3)CC2)cc1", "melting point": "138 to 141"},
      {"smiles": "Cc1cc(C)c(C(=O)P(=O)(c2ccccc2)c2ccccc2)c(C)c1Cl", "melting point": "125 to 126"},
      {"smiles": "COc1ccc(Cn2c(=O)oc(=O)c3ccccc32)cc1", "melting point": 143},
      {"smiles": "COc1ccc(/C=C/C(=O)C#CCO)cc1", "melting point": "68 to 69"},
      {"smiles": "Cc1ccc(-c2nc3ccc(C)cn3c2CC(=O)O)cc1", "melting point": "228 to 230"},
      {"smiles": "Cc1cc(C)nc(NC(=O)NS(=O)(=O)c2c([N+](=O)[O-])ccc3c2CCC3)n1", "melting point": 172},
      {"smiles": "O=C(O)c1cc(F)c(N(CCO)CCO)c(F)c1", "melting point": "146 to 150"},
      {"smiles": "CCCOc1cc(-c2c(C(=O)OCC)c(CCl)nc3cc(OC)c(OC)cc23)ccc1OC", "melting point": "126 to 128"},
      {"smiles": "CC1Cc2ccc(Br)cc2C(c2ccc(N)cc2)=NN1C(N)=O", "note": "(stereo unspecified)", "melting point": "218 to 221"}
    ]}
  ]
}
